Numbering of substitutions follows the chain as printed.
Tests used:
[1] = target: T1, AR in LNCaP (T878A) cells (Homo sapiens, UniProt P10275, T878A); assay: Assay on degradation activity for AR in LNCaP (T878A) cells (HTRF); format: cell-based; conditions: maximum degradation rate, 24 h
T1 construct: Assay on degradation activity for AR in LNCaP (T878A) cells; endogenous in cells; host or cells: LNCaP cells
T1 sequence (P10275 1-920 T878A): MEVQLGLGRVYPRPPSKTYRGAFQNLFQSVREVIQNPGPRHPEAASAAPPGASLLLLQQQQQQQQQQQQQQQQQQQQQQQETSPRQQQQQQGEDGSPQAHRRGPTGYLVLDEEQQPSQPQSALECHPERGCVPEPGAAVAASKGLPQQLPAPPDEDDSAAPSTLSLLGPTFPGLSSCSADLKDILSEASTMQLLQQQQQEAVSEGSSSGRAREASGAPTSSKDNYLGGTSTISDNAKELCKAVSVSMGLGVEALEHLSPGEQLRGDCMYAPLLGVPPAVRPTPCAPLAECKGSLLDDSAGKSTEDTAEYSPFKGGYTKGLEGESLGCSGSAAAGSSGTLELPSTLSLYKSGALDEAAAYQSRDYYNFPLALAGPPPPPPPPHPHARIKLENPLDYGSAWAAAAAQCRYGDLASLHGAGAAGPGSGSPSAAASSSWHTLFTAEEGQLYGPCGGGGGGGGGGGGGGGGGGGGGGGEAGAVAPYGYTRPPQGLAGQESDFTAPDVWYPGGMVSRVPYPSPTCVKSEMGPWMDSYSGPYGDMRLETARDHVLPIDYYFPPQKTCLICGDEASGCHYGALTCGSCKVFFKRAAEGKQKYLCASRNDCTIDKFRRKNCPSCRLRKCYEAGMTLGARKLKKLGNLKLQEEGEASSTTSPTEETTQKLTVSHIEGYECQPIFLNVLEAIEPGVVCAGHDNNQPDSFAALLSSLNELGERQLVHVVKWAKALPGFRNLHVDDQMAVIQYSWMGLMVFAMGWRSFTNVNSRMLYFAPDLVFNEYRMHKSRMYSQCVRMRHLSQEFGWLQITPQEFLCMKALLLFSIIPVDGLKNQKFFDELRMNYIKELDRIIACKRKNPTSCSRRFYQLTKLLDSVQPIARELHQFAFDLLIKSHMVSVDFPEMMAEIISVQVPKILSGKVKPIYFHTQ
Description: (§1) The detection was carried out using the HTRF HUMAN ANDROGEN RECEPTOR DETECTION KIT (cisbio, 64ANDRPEG), 4× Supplemented Lysis buffer was prepared using the Blocking reagent stock solution (100×) and Lysis buffer stock solution (4×), and 1× Supplemented Lysis buffer was prepared using the 4× Supplemented Lysis buffer and ddH2O. Premixed antibody solutions were prepared using Detection buffer, Androgen Receptor Eu Cryptate antibody, and Androgen Receptor d2 antibody.
(§2) The cells were cultured overnight in a cell incubator. […] After the cells were oscillated for 40 min at room temperature, 16 µL of the cell lysis buffer was added to a 384-well plate, the Premixed antibody solutions were added at 4 µL/well, and the mixture was left to stand at 25 °C for 2 h. […] Table 2. Degradation activity of compounds for AR in LNCaP (T878A) cells

VCaP cells = assay: Assay on inhibitory activity for VCaP cell proliferation (CCK-8); format: cell-based; conditions: Homo sapiens, 168 h
[2] = In vitro liver microsome stability, human; format: in vitro ADME; conditions: human liver microsomes 0.5 mg/mL, 37 °C, NADPH
Description: (§3) Liver microsome incubation samples were prepared by mixing a PBS buffer (pH 7.4), a liver microsome solution (0.5 mg/mL), a test compound, and an NADPH + MgCl2 solution, followed by incubation at 37 °C and 300 rpm for 1 h. Zero-hour samples were prepared by mixing a PBS buffer (pH 7.4), a liver microsome solution (0.5 mg/mL), and a test compound. […]

[3] = In vitro liver microsome stability, mouse; format: in vitro ADME; conditions: mouse liver microsomes 0.5 mg/mL, 37 °C, NADPH
Description: as §3

LNCaP (T878A) cells = assay: cells; conditions: Homo sapiens, 168 h
Description: LNCaP cells in a good growth state were taken, washed with PBS, and digested with pancreatin, and a phenol red-free 1640 complete medium containing 2% CSS-FBS was added to terminate the digestion. The cells were collected into a centrifuge tube, adjusted to a cell density of 1 × 10^5 cells/mL, and seeded in a 96-well plate (100 µL/well). Meanwhile, compounds were added using a nanoliter pipettor and subjected to a 2-fold gradient dilution such that the final concentrations of the compounds were 1000 nM-0.061 nM and 5000 nM-0.305 nM. 2 duplicate wells were set, and meanwhile, a control was set. After the cells were cultured in the cell incubator for another 168 h, the detection reagent CCK-8 (manufacturer: Dojindo, 10 µL/well) was added. After 2.0 h of incubation in the cell incubator, absorbance values at 450 nm were measured using a PerkinElmer Envision microplate reader, the four-parameter analysis was performed, the dose-response curves were fit, and IC50 was calculated.

AR in VCaP cells = target: T2, AR in VCaP cells (Homo sapiens, UniProt P10275); assay: Assay on degradation activity for AR in VCaP cells (HTRF human androgen receptor detection kit); format: cell-based; conditions: 24 h; for DC50: AR degradation; for Dmax: maximum degradation rate
T2 construct: Assay on degradation activity for AR in VCaP cells; endogenous in cells; host or cells: VCaP cells
T2 sequence (P10275 1-920): T1 sequence (P10275 1-920 T878A) with A878T
Description: as §1
as §2, with “1.” for “2.”, “VCaP” for “LNCaP (T878A)”

[4] = target: T3, AR in MDA-PCA-2B (L702H\T878A) cells (Homo sapiens, UniProt P10275, L702H/T878A); assay: Assay on degradation activity for AR in MDA-PCA-2B (L702H\T878A) cells (HTRF); format: cell-based; conditions: 24 h; for DC50: AR degradation; for Dmax: maximum degradation rate
T3 construct: Assay on degradation activity for AR in MDA-PCA-2B (L702H\T878A) cells; endogenous in cells; host or cells: MDA-PCA-2B cells
T3 sequence (P10275 1-920 L702H/T878A): T1 sequence (P10275 1-920 T878A) with L702H
Description: as §1
The cells were cultured overnight in a cell incubator. […] After the cells were oscillated for 40 min at room temperature, 16 µL of the cell lysis buffer was added to a 384-well plate, the Premixed antibody solutions were added at 4 µL/well, and the mixture was left to stand at 25 °C for 2 h. […]

in vivo = conditions: mouse
Description: (§4) ICR mice weighing 18-22 g were randomized into groups of 9 after 3-5 days of acclimatization. The mice in the intragastric administration group were intragastrically given the test compound solution at a dose of 10 mg/kg (20 mg/kg or 30 mg/kg), and the mice in the intravenous injection administration group were intravenously injected with the test compound solution at a dose of 1 mg/kg.
(§5) Blood was collected from the orbit to prepare plasma samples to be tested.
(§6) 30 µL of each of the plasma samples to be tested and a standard curve sample were taken, and an acetonitrile solution containing an internal standard was added. Supernatants were obtained by protein precipitation, diluted with a 1:1 (v:v) mixed solution of acetonitrile and water, and then assayed by LC/MS/MS. Data were fitted using a non-compartmental model.

Mouse pharmacokinetics = conditions: for F: Mouse i.g. (0-48 h), 10 mpk vs i.v. 1 mpk
Description: as §4, §5, §6

[5] = ICR, mouse, plasma, iv, 1 mg/kg
[6] = ICR, mouse, plasma, po, 10 mg/kg

SMILES	IC50 (VCaP cells) [nM]	HLM (human) Remaining amount at 60 min % [2] [%]	MLM (mouse) Remaining amount at 60 min % [3] [%]	DC50 (AR in VCaP cells) [nM]	Dmax (AR in VCaP cells) [%]	DC50 [4] [nM]	Dmax [4] [%]	F (Mouse pharmacokinetics) [%]	also measured
COc1cc(O[C@H]2C(C)(C)[C@H](NC(=O)c3ccc(N4CCC(CN5CCc6c(ccc7c(C8CCC(=O)NC8=O)noc67)C5)CC4)cn3)C2(C)C)ccc1C#N (stereo partly shown) [Compound 2]	< 2000	>70	>70	–	–	–	–	–	Dmax [1]: > 90%; IC50 (LNCaP (T878A) cells): < 50 nM
COc1cc(O[C@H]2C(C)(C)[C@H](NC(=O)c3ccc(N4CCC(CN5Cc6ccc7c(C8CCC(=O)NC8=O)noc7c6C5)CC4)cc3)C2(C)C)ccc1C#N (stereo partly shown) [Compound 8]	–	>70	>70	< 5	> 75	< 500	> 70	37.00	AUC at 48 h (in vivo; iv, 1 mg/kg): 20200 ng·h/mL; Vd (in vivo; iv, 1 mg/kg): 1.1 L/kg; clearance (in vivo; iv, 1 mg/kg): 0.7 mL/min/kg; half-life (in vivo; iv, 1 mg/kg): 18 h; AUC at 48 h (in vivo; po, 10 mg/kg): 77600 ng·h/mL; Cmax (in vivo; po, 10 mg/kg): 2810 ng/mL; half-life (in vivo; po, 10 mg/kg): 15 h
COc1cc(O[C@H]2C(C)(C)[C@H](NC(=O)c3ccc(N4CCC(CN5CCc6ccc7c(C8CCC(=O)NC8=O)noc7c6C5)CC4)cc3)C2(C)C)ccc1C#N (stereo partly shown) [Compound 9]	–	>70	–	–	–	< 500	> 70	–	–
COc1cc(O[C@H]2C(C)(C)[C@H](NC(=O)c3ccc(N4CCC(CN5CCc6ccc7c(C8CCC(=O)NC8=O)noc7c6CC5)CC4)cc3)C2(C)C)ccc1C#N (stereo partly shown) [Compound 10]	< 2000	>70	>70	< 5	> 75	< 500	> 70	30.00	AUC at 48 h (in vivo; iv, 1 mg/kg): 5400 ng·h/mL; Vd (in vivo; iv, 1 mg/kg): 3.1 L/kg; clearance (in vivo; iv, 1 mg/kg): 2.83 mL/min/kg; half-life (in vivo; iv, 1 mg/kg): 13 h; AUC at 48 h (in vivo; po, 10 mg/kg): 16200 ng·h/mL; Cmax (in vivo; po, 10 mg/kg): 620 ng/mL; half-life (in vivo; po, 10 mg/kg): 11 h
COc1cc(O[C@H]2C(C)(C)[C@H](NC(=O)c3ccc(N4CCC(CN5Cc6ccc7c(C8CCC(=O)NC8=O)noc7c6C5)CC4)nc3)C2(C)C)ccc1C#N (stereo partly shown) [Compound 11]	< 2000	>70	>70	< 5	> 75	< 500	> 70	–	–
COc1cc(O[C@H]2C(C)(C)[C@H](NC(=O)c3ccc(N4CCC(CN5CCc6ccc7c(C8CCC(=O)NC8=O)noc7c6C5)CC4)nc3)C2(C)C)ccc1C#N (stereo partly shown) [Compound 12]	–	>70	–	–	–	< 500	> 70	–	–
COc1cc(O[C@H]2C(C)(C)[C@H](NC(=O)c3ccc(N4CCC(CN5CCc6ccc7c(C8CCC(=O)NC8=O)noc7c6CC5)CC4)nc3)C2(C)C)ccc1C#N (stereo partly shown) [Compound 13]	< 2000	–	>70	< 5	> 75	< 500	> 70	41.00	AUC (Mouse pharmacokinetics; [5]): 6810 ng·h/mL; Vd (Mouse pharmacokinetics; [5]): 2 L/kg; clearance (Mouse pharmacokinetics; [5]): 2.33 mL/min/kg; half-life (Mouse pharmacokinetics; [5]): 9.7 h; AUC (Mouse pharmacokinetics; [6]): 28000 ng·h/mL; Cmax (Mouse pharmacokinetics; [6]): 1390 ng/mL; half-life (Mouse pharmacokinetics; [6]): 8.3 h
